Active and inactive are the calls of the source. No cut-off for these calls is given here. *1 amine or outer side, *2 acyl side, *3 side chain or, on linkers, in order; H or OH if unused. Where a SMILES comes first, the peptide text is derived from it. [ ]: non-standard residue; d: D form. X2 = N=C(N)N[C@H](CCOCN[*:1])C(=O)[*:2]; X3 = O=C([C@@H](CN[*:1])Cc1ccccc1)[*:2]; X1 = O=C([C@H](CN[*:1])Cc1ccccc1)[*:2]; NMeβAla = CN(CCC(=O)[*:2])[*:1]; βAla = NCCC(=O)O; Sar = CNCC(=O)O
Columns and labels:
A549 [1] = test: Cytotoxicity against human A549 cells assessed as cell viability upto 80 uM and measured after 24 to 48 hrs by PrestoBlue dye based microplate reader analysis; assay type: toxicity; settings: a549, 80 µM, time 24-48 hrs
[2] = Binding affinity to West Nile virus NSB2 (52 to 96 amino acids)-NS3 (1 to 184 amino acids) protease using Phac-Leu-Lys-Lys-Arg-AMC as substrate measured immediately upto 10 mins by fluorogenic assay
[3] = Binding affinity to Zika virus NS2B-NS3 protease using Phac-Leu-Lys-Lys-Arg-AMC as substrate measured immediately upto 10 mins by fluorogenic assay
Trypsin (Sus scrofa) = Trypsin (Sus scrofa) (UniProt P00761); test: Inhibition of porcine trypsin at 100 uM using Mes-D-Arg-Gly-Arg-AMC a substrate by fluorescence plate reader analysis
Sequence of Trypsin (Sus scrofa) (P00761 whole entry): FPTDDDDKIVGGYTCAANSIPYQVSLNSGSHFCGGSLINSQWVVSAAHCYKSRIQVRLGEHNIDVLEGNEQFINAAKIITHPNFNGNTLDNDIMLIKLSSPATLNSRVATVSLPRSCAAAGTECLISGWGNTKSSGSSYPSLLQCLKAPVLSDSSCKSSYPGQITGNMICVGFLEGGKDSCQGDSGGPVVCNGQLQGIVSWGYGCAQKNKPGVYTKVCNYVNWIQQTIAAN

Zika virus [4] = test: Antiviral activity against ZIKV H/PF/2013 infected in human A549 cells assessed as reduction in extracellular virus titer in cell supernatant at 80 uM measured after 24 hrs post infection by plaque assay based crystal violet staining analysis; assay type: functional, organism-based
Prothrombin (Bos taurus) = Prothrombin (Bos taurus) (UniProt P00735); test: Inhibition of bovine thrombin at 100 uM using Tos-Gly-Pro-Arg-AMC as substrate by fluorescence plate reader analysis
Zika virus [5] = test: Antiviral activity against Zika virus infected in human A549 cells assessed as reduction in luciferase activity at 20 uM measured up to 48 hrs post infection by luciferase assay; assay type: functional, organism-based
Zika virus [6] = test: Antiviral activity against ZIKV H/PF/2013 infected in human A549 cells assessed as reduction in extracellular virus titer in cell supernatant at 80 uM measured after 48 hrs post infection by plaque assay based crystal violet staining analysis; assay type: functional, organism-based
Zika virus [7] = test: Antiviral activity against ZIKV H/PF/2013 infected in human A549 cells assessed as reduction in intracellular virus titer at 80 uM measured after 48 hrs post infection by plaque assay based crystal violet staining analysis; assay type: functional, organism-based
Zika virus [8] = test: Antiviral activity against ZIKV H/PF/2013 infected in human A549 cells assessed as reduction in number of infected cells at 80 uM measured after 24 hrs post infection by immunofluorescence microscopic analysis relative to control; assay type: functional, organism-based
A549 [9] = test: Cytotoxicity against human A549 cells assessed as cell viability at 2.5 to 160 uM measured after 24 to 48 hrs by PrestoBlue dye based microplate reader analysis; assay type: toxicity; settings: a549, 160 µM, dose lower 2.5 µM, time lower 24 hrs, dose upper 160 µM, time upper 48 hrs

| Structure (SMILES) | Ki [2] | Ki [3] | also measured |
| --- | --- | --- | --- |
| CC(C)[C@H]1NC(=O)CCNC(=O)CNC(=O)[C@H](NC(=N)N)CCOCNC(=O)[C@H](CCCCN)NC(=O)[C@H](CCCCN)NC1=O.O=C(O)C(F)(F)F | 1680 nM | 8.26 nM | Activity (A549 [1]): Non-Toxic |
| N=C(N)N[C@@H]1CCOCNC(=O)[C@H](CCCCN)NC(=O)[C@H](CCCCN)NC(=O)Cc2cccc(c2)CNC(=O)CNC1=O |  |  | inhibition (Trypsin (Sus scrofa)): < 10%; Activity (Zika virus [4]): Active; inhibition (Prothrombin (Bos taurus)): < 30%; Activity (Zika virus [5]): Active; Activity (A549 [1]): Non-Toxic |
| C[C@@H]1NC(=O)CNC(=O)CNC(=O)[C@H](NC(=N)N)CCOCNC(=O)[C@H](CCCCN)NC(=O)[C@H](CCCCN)NC1=O | 1170 nM | 92.2 nM |  |
| CC(C)[C@@H]1NC(=O)CCNC(=O)CNC(=O)[C@H](NC(=N)N)CCOCNC(=O)[C@H](CCCCN)NC(=O)[C@H](CCCCN)NC1=O | 39700 nM | 340 nM |  |
| N=C(N)N[C@@H]1CCOCNC(=O)[C@H](CCCCN)NC(=O)[C@H](CCCCN)NC(=O)[C@@H](c2ccccc2)NC(=O)CCNC(=O)CNC1=O | 371 nM | 4.84 nM | inhibition (Trypsin (Sus scrofa)): 33%; inhibition (Prothrombin (Bos taurus)): 55% |
| N=C(N)N[C@@H]1CCOCNC(=O)[C@H](CCCCN)NC(=O)[C@H](CCCCN)NC(=O)CNC(=O)Cc2cccc(c2)CNC1=O | 1760 nM | 41.2 nM |  |
| CN1CCC(=O)N[C@@H](CCCCN)C(=O)N[C@@H](CCCCN)C(=O)NCOCC[C@@H](NC(=N)N)C(=O)NCC(=O)NCC1=O (cyclo(GG[NMeβAla]KK[X2])) | 36900 nM | 490 nM |  |
| CN1CC(=O)NCC(=O)NCCC(=O)N[C@@H](CCCCN)C(=O)N[C@@H](CCCCN)C(=O)NCOCC[C@@H](NC(=N)N)C1=O (cyclo(G[βAla]KK[X2][Sar])) | 30500 nM | 332 nM |  |
| N=C(N)N[C@@H]1CCOCNC(=O)[C@H](CCCCN)NC(=O)[C@H](CCCCN)NC(=O)[C@H]2CCCN2C(=O)CCNC(=O)CNC1=O | 2590 nM | 21 nM |  |
| N=C(N)N[C@@H]1CCOCNC(=O)[C@H](CCCCN)NC(=O)[C@H](CCCCN)NC(=O)[C@@H](CC2CCCCC2)NC(=O)CCNC(=O)CNC1=O | 735 nM | 6.94 nM | inhibition (Trypsin (Sus scrofa)): < 10%; inhibition (Prothrombin (Bos taurus)): < 30% |
| N=C(N)N[C@@H]1CCOCNC(=O)[C@H](CCCCN)NC(=O)[C@H](CCCCN)NC(=O)[C@@H](CCc2ccccc2)NC(=O)CCNC(=O)CNC1=O | 1290 nM | 10.3 nM |  |
| N=C(N)N[C@@H]1CCOCNC(=O)[C@H](CCCCN)NC(=O)[C@H](CCCCN)NC(=O)Cc2cccc(c2)CNC(=O)[C@@H](CCC2CCCCC2)NC1=O.O=C(O)C(F)(F)F | 219 nM | 2.33 nM | inhibition (Trypsin (Sus scrofa)): < 10%; Activity (Zika virus [4]): Active; Activity (Zika virus [6]): Active; inhibition (Prothrombin (Bos taurus)): < 30%; Activity (Zika virus [5]): Active; Activity (Zika virus [7]): Active; Activity (A549 [1]): Non-Toxic; Activity (Zika virus [8]): Active |
| N=C(N)N[C@@H]1CCOCNC(=O)[C@H](CCCCN)NC(=O)[C@H](CCCCN)NC(=O)[C@@H](Cc2ccccc2)NC(=O)CCNC(=O)CNC1=O.O=C(O)C(F)(F)F | 1920 nM | 3.06 nM | inhibition (Trypsin (Sus scrofa)): < 10%; inhibition (Prothrombin (Bos taurus)): < 30%; Activity (A549 [9]): Toxic; Activity (Zika virus [5]): Active |
| CN1CC(=O)NCCC(=O)N[C@@H](CCCCN)C(=O)N[C@@H](CCCCN)C(=O)NCOCC[C@@H](NC(=N)N)C(=O)NCC1=O (cyclo(G[Sar][βAla]KK[X2])) | 30700 nM | 333 nM |  |
| N=C(N)N[C@@H]1CCOCNC(=O)[C@H](CCCCN)NC(=O)[C@H](CCCCN)NC(=O)Cc2cccc(c2)CNC(=O)[C@@H](CCc2ccccc2)NC1=O | 331 nM | 6.02 nM |  |
| C[C@H]1NC(=O)CNC(=O)CNC(=O)[C@H](NC(=N)N)CCOCNC(=O)[C@H](CCCCN)NC(=O)[C@H](CCCCN)NC1=O | 6970 nM | 187 nM |  |

| Structure (SMILES) | Ki [2] | Ki [3] | also measured |
| --- | --- | --- | --- |
| CCCC[C@H]1NC(=O)CCNC(=O)CNC(=O)[C@H](NC(=N)N)CCOCNC(=O)[C@H](CCCCN)NC(=O)[C@H](CCCCN)NC1=O | 892 nM | 4.94 nM |  |
| CC(C)C[C@H]1NC(=O)CCNC(=O)CNC(=O)[C@H](NC(=N)N)CCOCNC(=O)[C@H](CCCCN)NC(=O)[C@H](CCCCN)NC1=O | 1030 nM | 4.3 nM |  |
| C[C@@H]1NC(=O)CCNC(=O)CNC(=O)[C@H](NC(=N)N)CCOCNC(=O)[C@H](CCCCN)NC(=O)[C@H](CCCCN)NC1=O | 7760 nM | 75 nM |  |
| C[C@H]1NC(=O)CCNC(=O)CNC(=O)[C@H](NC(=N)N)CCOCNC(=O)[C@H](CCCCN)NC(=O)[C@H](CCCCN)NC1=O | 1430 nM | 5.62 nM |  |
| N=C(N)N[C@@H]1CCOCNC(=O)[C@H](CCCCN)NC(=O)[C@H](CCCCN)NC(=O)[C@@H](Cc2ccccc2)CNC(=O)CNC(=O)CNC1=O (cyclo(GG[X1]KK[X2])) | 14800 nM | 63 nM | inhibition (Trypsin (Sus scrofa)): < 10%; inhibition (Prothrombin (Bos taurus)): < 30% |
| N=C(N)N[C@@H]1CCOCNC(=O)[C@H](CCCCN)NC(=O)[C@H](CCCCN)NC(=O)Cc2cccc(c2)CNC(=O)[C@@H](Cc2ccccc2)NC1=O | 693 nM | 5.34 nM |  |
| CC(C)C[C@@H]1NC(=O)CCNC(=O)CNC(=O)[C@H](NC(=N)N)CCOCNC(=O)[C@H](CCCCN)NC(=O)[C@H](CCCCN)NC1=O | 10300 nM | 124 nM |  |
| N=C(N)N[C@@H]1CCOCNC(=O)[C@H](CCCCN)NC(=O)[C@H](CCCCN)NC(=O)[C@@H](Cc2ccccc2)NC(=O)CNC(=O)CNC1=O (racemic) | 17300 nM | 139 nM |  |
| N=C(N)N[C@@H]1CCOCNC(=O)[C@H](CCCCN)NC(=O)[C@H](CCCCN)NC(=O)Cc2cccc(c2)CNC(=O)[C@@H](CC2CCCCC2)NC1=O | 395 nM | 3.59 nM | inhibition (Trypsin (Sus scrofa)): < 10%; inhibition (Prothrombin (Bos taurus)): < 30% |
| N=C(N)N[C@@H]1CCOCNC(=O)[C@H](CCCCN)NC(=O)[C@H](CCCCN)NC(=O)[C@H](Cc2ccccc2)CNC(=O)CNC(=O)CNC1=O (cyclo(GG[X3]KK[X2])) | 6490 nM | 86 nM |  |
| CC(C)[C@H]1NC(=O)[C@H](NC(=N)N)CCOCNC(=O)[C@H](CCCCN)NC(=O)[C@H](CCCCN)NC(=O)Cc2cccc(c2)CNC1=O | 439 nM | 7.74 nM |  |
| N=C(N)N[C@@H]1CCOCNC(=O)[C@H](CCCCN)NC(=O)[C@H](CCCCN)NC(=O)CCNC(=O)CNC(=O)CNC1=O (cyclo(GG[βAla]KK[X2])) |  |  | inhibition (Trypsin (Sus scrofa)): < 10%; inhibition (Prothrombin (Bos taurus)): < 30%; Activity (Zika virus [5]): Active; Activity (A549 [1]): Non-Toxic |
| CC(C)C[C@H]1NC(=O)[C@H](NC(=N)N)CCOCNC(=O)[C@H](CCCCN)NC(=O)[C@H](CCCCN)NC(=O)Cc2cccc(c2)CNC1=O | 276 nM | 9.53 nM | inhibition (Trypsin (Sus scrofa)): < 10%; inhibition (Prothrombin (Bos taurus)): < 30% |
| N=C(N)N[C@@H]1CCOCNC(=O)[C@H](CCCCN)NC(=O)[C@H](CCCCN)NC(=O)[C@H](Cc2ccccc2)NC(=O)CNC(=O)CNC1=O | 657 nM | 31.9 nM |  |
| N=C(N)N[C@@H]1CCOCNC(=O)[C@H](CCCCN)NC(=O)[C@H](CCCCN)NC(=O)CCNC(=O)Cc2cccc(c2)CNC1=O | 56500 nM | 81.4 nM |  |
